As usually defined, the IC50 is the concentration that gives 50% inhibition.

A value given as a limit tells only on which side of the number the result lay.

The values that follow come from patent US20240376056A1, “PHENYL ACETAMIDE BASED IL-17A MODULATORS AND USES THEREOF” (DiCE Alpha, Inc., priority 2021, published 2024).

For the test, the target named is T1, IL-17A/A (Homo sapiens, UniProt Q16552).
T1 construct: purchased Genscript Z03228
T1 sequence (Q16552 24-155): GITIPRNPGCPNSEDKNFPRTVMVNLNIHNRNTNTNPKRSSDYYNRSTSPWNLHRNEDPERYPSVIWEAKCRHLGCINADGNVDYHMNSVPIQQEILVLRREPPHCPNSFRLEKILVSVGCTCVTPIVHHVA
Briefly: HEK-Blue IL-17A/A inhibition assay (SEAP reporter). It is filed as cell-based. Conditions: HEK-Blue cells (HEK 293 expressing IL-17RA, IL-17RC, Act1); IL-17A/A stimulation; 20 hours; SEAP read at A630; 4-parameter fit. The essentials:
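IC50 from a 4-parameter fit of SEAP signal (Quanti-Blue, A630) after 20 h co-incubation of compound and IL-17A/A. Reporter line: HEK 293 expressing IL-17RA, IL-17RC and Act1 with NFκB-SEAP; compound top final 10, 1 or 0.3 uM, DMSO 0.1% final.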

As to `CCn1nccc1C(=O)N[C@H](C(=O)Nc1cc(OC)c(C(C)C(=O)N(C)CC(F)(F)F)cc1F)C(C1CC1)C1CC1` (stereo partly drawn) [Compound 174], the 50% inhibitory concentration (IC50) is below 100 nM. With `CC(C)n1nccc1C(=O)N[C@H](C(=O)Nc1ccc([C@H](C)C(=O)NCC(F)(F)F)cc1F)C1CCC(F)(F)CC1` [Compound 50, N-((S)-1-(4,4-difluorocyclohexyl)-2-((2-fluoro-4-((S)-1-oxo-1-((2,2,2-trifluoroethyl)amino)propan-2-yl)phenyl)amino)-2-oxoethyl)-1-isopropyl-1H-pyrazole-5-carboxamide] the figure was 100 to 1000 nM; with `CC(C)n1nccc1C(=O)N[C@H](C(=O)Nc1ccc([C@H](C)C(=O)N2CCN(CC(F)(F)F)CC2)cc1F)C(C1CC1)C1CC1` [Compound 24, N-((S)-1.1-dicyclopropyl-3-((2-fluoro-4-((S)-1-oxo-1-(4-(2,2,2-trifluoroethyl)piperazin-1-yl)propan-2-yl)phenyl)amino)-3-oxopropan-2-yl)-1-isopropyl-1H-pyrazole-5-carboxamide], 100 to 1000 nM; with `Cc1cc(NC(=O)C(NC(=O)c2ccnn2C(C)C)C(C2CC2)C2CC2)c(F)cc1C(C)C(=O)N1CC(C)OCC1C(F)(F)F` (stereo not drawn) [Compound 184], below 100 nM.

On to `CC(C)n1nccc1C(=O)N[C@H](C(=O)Nc1ccc([C@H](C)C(=O)N2C[C@H](F)C[C@H]2C(F)(F)F)cc1F)C(C1CC1)C1CC1` [Compound 58, N-((S)-1,1-dicyclopropyl-3-((2-fluoro-4-((S)-1-((2S,4R)-4-fluoro-2-(trifluoromethyl)pyrrolidin-1-yl)-1-oxopropan-2-yl)phenyl)amino)-3-oxopropan-2-yl)-1-isopropyl-1H-pyrazole-5-carboxamide], for which the 50% inhibitory concentration (IC50) lay in the range of 100 to 1000 nM.

Regarding `CCN(CC(F)(F)F)C(=O)C(C)c1ccc(NC(=O)[C@@H](NC(=O)c2ccnn2CC)C2CCCCCC2)c(F)c1` (single isomer, unassigned) [Compound 70], the IC50 was in the range of 100 to 1000 nM. As for `CC(C(=O)NCC(F)(F)F)c1cc(F)c(NC(=O)[C@@H](NC(=O)c2ccnn2C(C)C)C(C2CC2)C2CC2)cc1C(F)(F)F` (single isomer, unassigned) [Compound 121], the figure is above 1000 nM. As to `CCn1nccc1C(=O)N[C@H](C(=O)Nc1ccc([C@H](C)C(=O)N(C)CC(F)(F)F)cc1F)C1CCCCCC1` (single isomer, unassigned) [Compound 4], the 50% inhibitory concentration (IC50) is below 100 nM. With `CCn1nccc1C(=O)N[C@H](C(=O)Nc1ccc([C@H](C)C(=O)N(C)CC(F)(F)F)cc1F)C1CCC(F)(F)CC1` [Compound 74, N-((S)-1-(4,4-difluorocyclohexyl)-2-((2-fluoro-4-((S)-1-(methyl(2,2,2-trifluoroethyl)amino)-1-oxopropan-2-yl)phenyl)amino)-2-oxoethyl)-1-ethyl-1H-pyrazole-5-carboxamide] the figure was 100 to 1000 nM; with `CCn1nccc1C(=O)N[C@H](C(=O)Nc1ccc([C@H](C)C(=O)N(C)CC(F)(F)F)cc1F)[C@H]1CC[C@H](C)CC1` [Compound 71, -ethyl-N-((S)-2-((2-fluoro-4-((S)-1-(methyl(2,2,2-trifluoroethyl)amino)-1-oxopropan-2-yl)phenyl)amino)-1-((1r,4S)-4-methylcyclohexyl)-2-oxoethyl)-1H-pyrazole-5-carboxamide], below 100 nM.

On to `CCn1nccc1C(=O)N[C@H](C(=O)Nc1cc(OC(F)(F)F)c(C(C)C(=O)NCC(F)(F)F)cc1F)C(C1CC1)C1CC1` (stereo partly drawn) [Compound 259], for which the IC50 was below 100 nM. With `CC(C)n1nccc1C(=O)N[C@H](C(=O)Nc1ccc(C(CN2CCOCC2)C(=O)NCC(F)(F)F)cc1F)C(C1CC1)C1CC1` (single isomer, unassigned) [Compound 130] the figure was above 1000 nM; with `CC(C)n1nccc1C(=O)N[C@H](C(=O)Nc1ccc([C@H](C)C(=O)NCC(F)F)cc1F)C(C1CC1)C1CC1` [Compound 17, N-((S)-1,1-dicyclopropyl-3-((4-((S)-1-((2,2-difluoroethyl)amino)-1-oxopropan-2-yl)-2-fluorophenyl)amino)-3-oxopropan-2-yl)-1-isopropyl-1H-pyrazole-5-carboxanide], 100 to 1000 nM. With `CC(C)n1nccc1C(=O)N[C@H](C(=O)Nc1ccc(C(C)(C)C(=O)NCC(F)(F)F)cc1F)C(C1CC1)C1CC1` [Compound 107, (S)-N-(1.1-dicyclopropyl-3-((2-fluoro-4-(2-methyl-1-oxo-1-((2,2,2-trifluoroethyl)amino)propan-2-yl)phenyl)amino)-3-oxopropan-2-yl)-1-isopropyl-1H-pyrazole-5-carboxamide] the figure was 100 to 1000 nM; with `CCc1nonc1C(=O)N[C@H](C(=O)Nc1cc(C)c(C(C)C(=O)N(C)CC(F)(F)F)cc1F)C(C1CC1)C1CC1` (stereo partly drawn) [Compound 205], below 100 nM. As for `CCCNC(=O)Cc1ccc(NC(=O)[C@@H](NC(=O)c2ccnn2CC)C2CCCCCC2)c(F)c1` [Compound 114, (S)-N-(1-cycloheptyl-2-((2-fluoro-4-(2-oxo-2-(propylamino)ethyl)phenyl)amino)-2-oxoethyl)-1-ethyl-1H-pyrazole-5-carboxamide], the figure is above 1000 nM; as for `CC(C)n1nccc1C(=O)N[C@H](C(=O)Nc1ccc([C@H](C)C(=O)N2C(C(N)=O)CCC2C(F)(F)F)cc1F)C(C1CC1)C1CC1` (single isomer, unassigned) [Compound 148], above 1000 nM; as for `CC(C)n1nccc1C(=O)N[C@H](C(=O)Nc1ccc([C@H](C)C(=O)N(CCN)CC(F)(F)F)cc1F)C(C1CC1)C1CC1` [Compound 139, N-((S)-1-((4-((S)-1-((2-aminoethyl)(2,2,2-trifluoroethyl)amino)-1-oxopropan-2-yl)-2-fluorophenyl)amino)-3,3-dicyclopropyl-1-oxopropan-2-yl)-1-isopropyl-1H-pyrazole-5-carboxamide], 100 to 1000 nM. For `Cc1cc(NC(=O)[C@@H](NC(=O)c2nonc2C)C(C2CC2)C2CC2)c(F)cc1C(C)C(=O)NCC(F)(F)F` (stereo partly drawn) [Compound 210], the IC50 was in the range of 100 to 1000 nM. As for `CCC(C(=O)N(C)CC(F)(F)F)c1ccc(NC(=O)[C@@H](NC(=O)c2ccnn2C(C)C)C(C2CC2)C2CC2)c(F)c1` (stereo partly drawn) [Compound 192], the figure is below 100 nM. Turning to `CC(C)n1nccc1C(=O)N[C@H](C(=O)Nc1cc(CCN(C)C)c([C@H](C)C(=O)NCC(F)(F)F)cc1F)C(C1CC1)C1CC1` [Compound 166, N-((S)-1,1-dicyclopropyl-3-((5-(2-(dimethylamino)ethyl)-2-fluoro-4-((S)-1-oxo-1-((2,2,2-trifluoroethyl)amino)propan-2-yl)phenyl)amino)-3-oxopropan-2-yl)-1-isopropyl-1H-pyrazole-5-carboxamide], the IC50 was 100 to 1000 nM. Take `CCn1nccc1C(=O)N[C@H](C(=O)Nc1cc(C(F)(F)F)c(C(C)C(=O)N2CC(F)(F)CC2C(F)(F)F)cc1F)C(C1CC1)C1CC1` (stereo partly drawn) [Compound 239]: the IC50 is 100 to 1000 nM. As for `Cc1cc(NC(=O)[C@@H](NC(=O)c2ccnn2C(C)C)C(C2CC2)C2CC2)c(F)cc1C(C)C(=O)N1CC(O)CC1C(F)(F)F` (single isomer, unassigned) [Compound 199], the figure is below 100 nM. For `Cc1cc(NC(=O)[C@@H](NC(=O)c2ccnn2C(C)C)C2CCC(F)(F)CC2)c(F)cc1C(C)C(=O)N(C)CC(F)(F)F` (stereo partly drawn) [Compound 207], the half-maximal inhibitory concentration (IC50) was below 100 nM.

In the case of `CC(C)c1nocc1C(=O)N[C@H](C(=O)Nc1cc(C(F)(F)F)c(C(C)C(=O)NCC(F)(F)F)cc1F)C(C1CC1)C1CC1` (stereo partly drawn) [Compound 229], the IC50 was above 1000 nM. On to `CC(CN1CCOCC1)n1nccc1C(=O)N[C@H](C(=O)Nc1ccc([C@H](C)C(=O)NCC(F)(F)F)cc1F)C(C1CC1)C1CC1` (single isomer, unassigned) [Compound 93], for which the half-inhibitory concentration (IC50) lay within 100 to 1000 nM. As for `CC(C)n1nccc1C(=O)N[C@H](C(=O)Nc1ccc(C(N)C(=O)NCC(F)(F)F)cc1F)C(C1CC1)C1CC1` (single isomer, unassigned) [Compound 189], the figure is above 1000 nM; as for `CC(C)n1nccc1C(=O)N[C@H](C(=O)Nc1ccc([C@H](C)C(=O)NCCF)cc1F)C(C1CC1)C1CC1` [Compound 34, N-((S)-1,1-dicyclopropyl-3-((2-fluoro-4-((S)-1-((2-fluoroethyl)amino)-1-oxopropan-2-yl)phenyl)amino)-3-oxopropan-2-yl)-1-isopropyl-1H-pyrazole-5-carboxamide], 100 to 1000 nM; as for `COC(=O)Nc1cc(NC(=O)[C@@H](NC(=O)c2ccnn2C(C)C)C(C2CC2)C2CC2)c(F)cc1C(C)C(=O)NCC(F)(F)F` (stereo partly drawn) [Compound 249], 100 to 1000 nM.

Take `CCC(C(=O)NCC(F)(F)F)c1ccc(NC(=O)[C@@H](NC(=O)c2ccnn2C(C)C)C(C2CC2)C2CC2)c(F)c1` (single isomer, unassigned) [Compound 150]: the IC50 was above 1000 nM. Regarding `CCn1nccc1C(=O)N[C@H](C(=O)Nc1cc(OC(F)(F)F)c(C(C)C(=O)N(C)CC(F)(F)F)cc1F)C(C1CC1)C1CC1` (stereo partly drawn) [Compound 253], the half-maximal inhibitory concentration (IC50) was below 100 nM.

Take `CCn1nccc1C(=O)N[C@H](C(=O)Nc1ccc([C@H](C)C(=O)N(C)CC(F)(F)F)cc1F)[C@H]1CCc2ccccc21` [Compound 90, N-((S)-1-((S)-2,3-dihydro-1H-inden-1-yl)-2-((2-fluoro-4-((S)-1-(methyl(2,2,2-trifluoroethyl)amino)-1-oxopropan-2-yl)phenyl)amino)-2-oxoethyl)-1-ethyl-1H-pyrazole-5-carboxamide]: the IC50 was 100 to 1000 nM.

On to `CC(C(=O)NCC(F)(F)F)c1cc(F)c(NC(=O)[C@@H](NC(=O)c2ccnn2C(C)C)C(C2CC2)C2CC2)cc1Nc1ccccn1` (single isomer, unassigned) [Compound 261], for which the IC50 is above 1000 nM.
